Assay [1] has as its system endogenous receptors in A431 cells. Nature of the assay: LOPAC library agonist screening with biosensor cellular assay (DMR). The assay is classed as cell-based, human. The following applies: for identification of beta-adrenoceptor agonists as hits in the agonist screen: 1 microM. The method, then: (§1) Corning® Epic® wavelength interrogation system was used.
Furthermore, a ligand-induced DMR is a real time kinetic response containing many useful parameters (e.g., phases, amplitudes and kinetics) for analyzing ligand pharmacology. The LOPAC library was used to screen agonists for endogenous receptors in A431 cells using real time kinetic measurements.
First, the response in terms of wavelength shift between before and 2 min after stimulation was calculated.
Second, the responses in terms of wavelength shift between before and 50 min after stimulation were calculated.
Third, the responses in terms of wavelength shift between 2 min and 50 min after stimulation were calculated. The difference in resonant wavelength between the two time points was plotted as a function of compounds (FIG. 8).

In assay [2] the target is T1, histamine receptor subtype 1 (H1R) (Homo sapiens, UniProt P35367). Description: Dual receptor-specific antagonist screening (LOPAC), histamine response. The format is cell-based. The arrangement: endogenous in cells; host or cells: A431 (human epidermoid carcinoma), quiescent after serum starvation.
T1 sequence (P35367 whole entry): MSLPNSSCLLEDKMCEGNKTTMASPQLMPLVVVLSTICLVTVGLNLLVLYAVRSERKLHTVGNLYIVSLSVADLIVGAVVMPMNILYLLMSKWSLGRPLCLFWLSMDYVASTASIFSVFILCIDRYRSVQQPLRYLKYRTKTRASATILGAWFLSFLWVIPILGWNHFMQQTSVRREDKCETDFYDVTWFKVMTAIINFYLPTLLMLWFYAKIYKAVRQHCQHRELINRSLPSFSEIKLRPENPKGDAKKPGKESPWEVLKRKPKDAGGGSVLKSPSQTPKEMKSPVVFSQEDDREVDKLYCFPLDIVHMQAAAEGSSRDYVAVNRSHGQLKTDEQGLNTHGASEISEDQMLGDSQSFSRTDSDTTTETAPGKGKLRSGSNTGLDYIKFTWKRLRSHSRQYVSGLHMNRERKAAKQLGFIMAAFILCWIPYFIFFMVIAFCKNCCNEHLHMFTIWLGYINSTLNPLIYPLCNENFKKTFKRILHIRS
Assay [3] deals with T2, β2-adrenergic receptor (β2AR) (Homo sapiens, UniProt P07550). Nature of the assay: Dual receptor-specific antagonist screening (LOPAC), epinephrine response. The format is cell-based. Set-up: A431 cells endogenously express both PAR1 and β2AR; endogenous in cells; host or cells: A431 (human epidermoid carcinoma), quiescent after serum starvation.
Assay [4] has as its target T1, histamine receptor subtype 1 (H1R). Nature of the assay: Antagonist pretreatment against the histamine-induced DMR signal in A431 cells. The format is cell-based. Set-up: endogenous in cells; host or cells: A431 (human epidermoid carcinoma), quiescent after serum starvation. The following applies: pretreatment of A431 with compound at 1 μM.
Assay [5] has as its target T2, β2-adrenergic receptor (β2AR). The following applies: for type of DMR signal induced: A431 cells, 2 nanomolar in b161/b162.
Source text: as §1
A431 endogenously expresses large numbers of the β2AR, but neither β1 nor β3-ARs. […] The DMR signal consists of a small decreased signal (i.e., N-DMR) with a short duration, followed by an increased signal (i.e., P-DMR) to an elevated level.

For assay [6] the target is unchanged. The note with it: co-stimulation with 2 nM epinephrine and 1 μM histamine; high doses.
Where [7] appears, read: compound 1 microM for one hour, then cocktail of epinephrine and histamine.
Setting [8] is: A431 cells, compound at 1 microM, real time kinetic.

Where two headings read alike, the source gives them in different places.

Take `CCCCc1oc2ccccc2c1C(=O)c1cc(I)c(OCCN(CC)CC)c(I)c1` [amiodarone]: the “identification of beta-adrenoceptor agonists as hits in the agonist screen” value in assay [1] (A431 cells) is “false negative”. For the compound `CCc1ccccc1OC[C@@H](O)CN[C@H]1CCCc2ccccc21` [SR 59230A], the “effect on the histamine response in the co-stimulation” value (from here on “effect on the histamine response”) in assay [2] (setting [7]) is listed as “little impact”. Further, in assay [3] (setting [7]), the “effect on the epinephrine response in the co-stimulation” value (“effect on the epinephrine response” for short) is “inhibited or partially attenuated”. In addition, the “ligand-induced DMR signal in agonist screening” value (“ligand-induced DMR signal” for short) in assay [1] (setting [8]) is “did not result in any apparent DMR signals”.

For the compound `CN1CCC(=C2c3ccccc3CC(=O)c3sccc32)CC1` [ketotifen], the “ligand-induced DMR signal” value in assay [1] (setting [8]) is “did not lead to any DMR signal”. Still for that read-out and setting: then `CC(CN1c2ccccc2Sc2ccccc21)N(C)C` (centres unmarked) [promethazine], with “did not lead to any DMR signal”; and `N=C(N)SCCc1cnc[nH]1` [imetit], with “did not lead to any obvious DMR signal”.

As to `C=CCc1ccccc1OCC(O)CNC(C)C` (centres unmarked) [alprenolol], the “effect on the histamine response” value in assay [2] (setting [7]) is reported as “little impact”. Also, the “ligand-induced DMR signal” value in assay [1] (setting [8]) is given as “did not result in any apparent DMR signals”. Consider (±)isoproterenol, for which, in assay [1] (setting [8]), the “ligand-induced DMR signal” value is given as “typical Gs-type DMR signal”. Consider `CN(C)CCCCSC(=N)N` [SKF91488], for which, in assay [4], the “effect on the DMR signal induced by 1 μM histamine” value (“effect on the DMR signal induced” below) is on record as “did not have obvious impact”. As for `c1cc(CN2CCCCC2)cc(OCCCNc2nc3ccccc3s2)c1` [SKF95282], the “effect on the epinephrine response” value in assay [3] (setting [7]) is “partial desensitization”. For the same compound, the “ligand-induced DMR signal” value in assay [1] (setting [8]) was “DMR that was similar to pindolol”. Turning to `CC(C)(C)c1ccc(C(O)CCCN2CCC(C(O)(c3ccccc3)c3ccccc3)CC2)cc1` (centres unmarked) [terfenadine], the “ligand-induced DMR signal” value in assay [1] (setting [8]) is “did not lead to any DMR signal”.

Take S(−)pindolol: the “ligand-induced DMR signal” value in assay [1] (setting [8]) is reported as “Gs-like DMR which only consists of the prolonged P-DMR event without the initial N-DMR event”.

`CN(C)CCC(c1ccc(Cl)cc1)c1ccccn1` (racemic) [(±)chlorpheniramine]: in assay [1] (setting [8]), the “ligand-induced DMR signal” value was “did not lead to any DMR signal”. `S=C(NC1CCCCC1)N1CCC(c2cnc[nH]2)CC1` [thioperamide]: the “effect on the DMR signal induced” value in assay [4] is given as “did not have obvious impact”.

With `Cc1ccc(OCC(O)C(C)NC(C)C)c2c1CCC2` (centres unmarked) [ICI 118,551], in assay [2] (setting [7]), the “effect on the histamine response” value is on record as “little impact”. The “ligand-induced DMR signal” value in assay [1] (setting [8]) is listed as “did not result in any apparent DMR signals”. With `CC(C)NCC(O)COc1ccc(CCOCC2CC2)cc1` (centres unmarked) [betaxolol], the “effect on the histamine response” value in assay [2] (setting [7]) is on record as “little impact”. In addition, in assay [1] (setting [8]), the “ligand-induced DMR signal” value is reported as “did not result in any apparent DMR signals”.

In the case of `Clc1ccc2c(c1)C(N1CCNCC1)=Nc1ccccc1O2` [amoxapine], the “effect on the epinephrine response” value in assay [3] (setting [7]) is on record as “little effect”. Regarding `CN(C)CCOC(C)(c1ccccc1)c1ccccn1` (centres unmarked) [doxylamine], the “effect on the histamine response” value in assay [2] (setting [7]) was “completely or almost completely attenuated”. Moreover, the “ligand-induced DMR signal” value in assay [1] (setting [8]) is “did not lead to any DMR signal”. Take `CN(C)CCC=C1c2ccccc2CCc2ccccc21` [amitriptyline]: the “effect on the epinephrine response” value in assay [3] (setting [7]) is recorded as “little effect”. As to `CC(C)(C(=O)O)c1ccc(C(O)CCCN2CCC(C(O)(c3ccccc3)c3ccccc3)CC2)cc1` (centres unmarked) [fexofenadine], the “ligand-induced DMR signal” value in assay [1] (setting [8]) is given as “did not lead to any DMR signal”. Consider (±)-ephedrine, for which the “identification of beta-adrenoceptor agonists as hits in the agonist screen” value in assay [1] (A431 cells) was “false negative”. `CC(C)NC[C@H](O)COc1cccc2ccccc12` [(S)-propranolol]: the “ligand-induced DMR signal” value in assay [1] (setting [8]) is listed as “did not result in any apparent DMR signals”. Same read-out and setting: then `COc1ccc(CN(CCN(C)C)c2ccccn2)cc1` [pyrilamine], with “did not lead to any DMR signal”.

With (S)-(−)-propafenone, the “effect on the epinephrine response” value in assay [3] (setting [7]) is listed as “inhibited or partially attenuated”. The “ligand-induced DMR signal” value in assay [1] (setting [8]) was “did not result in any apparent DMR signals”. Regarding `CN(C)CC[C@@H](c1ccc(Br)cc1)c1ccccn1` [(+)-brompheniramine], the “effect on the histamine response” value in assay [2] was “completely or almost completely attenuated”. Moreover, the “ligand-induced DMR signal” value in assay [1] (setting [8]) is reported as “did not lead to any DMR signal”. As to `CN(C)CCC(c1ccc(Br)cc1)c1ccccn1` (racemic) [(±)-brompheniramine], the “effect on the histamine response” value in assay [2] is “completely or almost completely attenuated”. Besides, the “ligand-induced DMR signal” value in assay [1] (setting [8]) is on record as “did not lead to any DMR signal”. In assay [4], the “effect on the DMR signal induced” value is on record as “completely inhibited”.

For the compound `CC(C)(C)NCC(O)COc1cccc2[nH]c(=O)[nH]c12` (racemic) [(±)CGP12177], in assay [1] (setting [8]), the “ligand-induced DMR signal” value is reported as “Gs-like DMR which only consists of the prolonged P-DMR event without the initial N-DMR event”. Regarding `CNCCCC12CCC(c3ccccc31)c1ccccc12` [maprotiline], the “effect on the epinephrine response” value in assay [3] (setting [7]) was “little effect”. In the case of R(−)-α-methyl-histamine, in assay [1], the “ligand-induced DMR signal” value was “did not lead to any obvious DMR signal”. Consider `CC(C)NCC(O)c1ccc(O)c(O)c1` (stereo not drawn) [R(−)isoproterenol], for which the “ligand-induced DMR signal” value in assay [1] (setting [8]) is on record as “typical Gs-type DMR signal”. With `CN(C)CC[C@@H](c1ccc(Cl)cc1)c1ccccn1` [(+)-chlorpheniramine], in assay [1] (setting [8]), the “ligand-induced DMR signal” value is recorded as “did not lead to any DMR signal”.

Take `CC(C)NCC(O)c1ccc(NS(C)(=O)=O)cc1` (racemic) [(±)-Sotalol]: in assay [1] (setting [8]), the “ligand-induced DMR signal” value is recorded as “did not result in any apparent DMR signals”. In the case of `CNC[C@H](O)c1ccc(O)c(O)c1` [epinephrine], the “type of DMR signal induced” value in assay [5] is reported as “Gs-type DMR signal”; in assay [5] (listed as Epinephrine), “biphasic Gs-type DMR response”. The “Hill slope of the epinephrine DMR response” value in assay [5] (quiescent A431 cells, n=10) amounted to 0.95. Besides, the “effect of pretreatment on the epinephrine response” value in assay [6] is “completely inhibited”. Regarding `Cc1ccc(/C(=C\CN2CCCC2)c2ccccn2)cc1` [triprolidine], in assay [2] (setting [7]), the “effect on the histamine response” value was “completely or almost completely attenuated”. Also, the “ligand-induced DMR signal” value in assay [1] (setting [8]) is “did not lead to any significant DMR signal”. The “effect on the DMR signal induced” value in assay [4] is listed as “completely inhibited”. `CC(C)(C)NC[C@H](O)COc1nsnc1N1CCOCC1` [S(−)-timolol]: the “ligand-induced DMR signal” value in assay [1] (setting [8]) was “did not result in any apparent DMR signals”. As for Ruthernium red, the “ligand-induced DMR signal” value in assay [1] (setting [8]) is given as “Gs-like DMR signal but with much larger amplitude”. With `CNCCC=C1c2ccccc2CCc2ccccc21` [nortriptyline], the “effect on the epinephrine response” value in assay [3] is “little effect”. Regarding `CN(C)CCC(c1ccccc1)c1ccccn1` (centres unmarked) [pheniramine], in assay [2] (setting [7]), the “effect on the histamine response” value is listed as “partial inhibition”. Moreover, the “ligand-induced DMR signal” value in assay [1] (setting [8]) is “did not lead to any DMR signal”.

Turning to `CN1CCC[C@@H]1CCO[C@](C)(c1ccccc1)c1ccc(Cl)cc1` [clemastine], the “ligand-induced DMR signal” value in assay [1] (setting [8]) was “did not lead to any DMR signal”. For `CC(C)NCC(O)COc1cccc2ccccc12` (racemic) [(±)-propranolol], the “ligand-induced DMR signal” value in assay [1] (setting [8]) is on record as “did not result in any apparent DMR signals”. Take `NC(N)=Nc1nc(CSCCC(N)=NS(N)(=O)=O)cs1` [famotidine]: the “effect on the epinephrine response” value in assay [3] (setting [7]) is “partial desensitization”. Further, the “ligand-induced DMR signal” value in assay [1] (setting [8]) was “DMR that was similar to pindolol”. `CN(C)CCN(Cc1cccs1)c1ccccn1` [methapyrilene]: the “ligand-induced DMR signal” value in assay [1] (setting [8]) is listed as “did not lead to any DMR signal”. In the case of `CC(COc1ccccc1)N(CCCl)Cc1ccccc1` (centres unmarked) [phenoxybenzamine], in assay [2], the “effect on the histamine response” value is “almost completely inhibited”. For the same compound, the “effect on the epinephrine response” value in assay [3] (setting [7]) was “little effect”. Turning to `Clc1ccc(Cn2c(CN3CCCC3)nc3ccccc32)cc1` [clemizole], the “effect on the histamine response” value in assay [2] (setting [7]) is “completely or almost completely attenuated”. Moreover, in assay [1] (setting [8]), the “ligand-induced DMR signal” value is on record as “did not lead to any DMR signal”. Also, the “effect on the DMR signal induced” value in assay [4] is recorded as “completely inhibited”. Take `COCCc1ccc(OCC(O)CNC(C)C)cc1` (racemic) [(±)-metoprolol]: in assay [1] (setting [8]), the “ligand-induced DMR signal” value is “did not result in any apparent DMR signals”.
